According to US10722528B2, “Compositions and methods for inhibiting metastasis” (Augusta University Research Institute, Inc., priority 2018, dated 2020):

Legend:
[1] = system: EMT6 cells co-cultured with mMDSCs; test: EMT6 cells co-cultured with mMDSCs and NOS2 inhibitor 1400W (qPCR, Western blot); type: cell-based, mouse
Description: (§1) FIGS. 5A-5D are bar graphs showing expression of IL6 (FIG. 5A), IL1A (FIG. 5B), TGFB (FIG. 5C), and Vimentin (FIG. 5D) in EMT6 cells (white bars), EMT6 cells+0.5 mM DPTA (gray bars), and EMT6 cells+2.5 mM DPTA (black bars). FIG. 5E-5H are bar graphs showing expression of IL6 (FIG. 5E), IL1A (FIG. 5F), TGFB (FIG. 5G), and Vimentin (FIG. 5H) in EMT6 cells (white bars), EMT6 cells+mMDSCs (gray bars), and EMT6 cells+mMDSCs/1400W (black bar). FIG. 5I is a representative Western blot showing pSTAT3, STAT3, pSTAT1, STAT1, Vimentin, Twist, and actin expression in untreated EMT6 cell, or EMT6 cells treated with 0.5 mM or 2.5 mM DPTA, mMDSCs, or mMDSCs+1400W.
(§2) For RT-PCR analyses, KiCqStart SYBR Green predesigned primers (Sigma) were used for the following genes: […]
(§3) The relative fold change was measured by 2-ΔΔCt formula compared to the control cells. Means and differences of the means with 95% confidence intervals were obtained using GraphPad Prism (GraphPad Software Inc.). Two-tailed Student's t-test was used for unpaired analysis comparing average expression between conditions. P values<0.05 were considered statistically significant.

EMT6 cells = system: EMT6 cells
Description: as §1, §2, §3

[2] = system: gMDSC differentiation in bone marrow cells; test: In vitro screening of gMDSC differentiation in bone marrow cells (GM-CSF/G-CSF, flow cytometry); type: cell-based, mouse; details: GM-CSF, 3 days, flow cytometry (Ly6c+Ly6g+CD11b+)
Description: BALB/c mice were euthanized by CO2 asphyxiation. The femur bones were carefully resected under sterile conditions, cleaned to remove the attached muscle/tissue, and cleaned with 70% ethanol. The bones were then transferred on to a sterile Petri dish with culture medium Roswell Park Memorial Institute (RPMI)-1640. Both ends of femurs were carefully trimmed using sterile, sharp scissors to expose the interior marrow shaft. The contents of marrow were flushed with 2-4 ml of culture medium (RPMI-1640 supplemented with 10% FBS) using 1-ml insulin syringe with a 29G×½ needle. Later, the bone marrow was flushed out onto a 70 μm nylon cell strainer placed in a 50 ml Falcon conical tube (The bones should appear white once all the marrow has been expelled out completely). The collected BM cell suspension was further diluted with 20 ml of phosphate buffer saline (PBS), and the cell suspension was centrifuged at 1,000 rpm […]. The supernatant and the cell pellet were collected using red blood cell (RBC) lysis buffer and incubated for 5 minutes. 5-10 mL of PBS was added, and the solution was centrifuged at 1,000 rpm for 5 minutes. The supernatant was discarded and the cell pellet was washed with PBS, and re-centrifuged at 1,000 rpm for 5 minutes. The cells were re-suspended with RPMI medium containing 10% FBS and used for assays or culture.
Computational screening of certain select NCI chemical library was performed again the crystal structure of calprotectin. 40 lead compounds were identified with potential to bind to calprotectin and suppress gMDSC differentiation. In vitro screening using the 40 lead compounds was performed. Bone marrow cells were counted using hemocytometer or Beckman Z2 coulter counter and suspended in culture medium (RPMI 1640+10% FBS+1% penicillin/streptomycin) to achieve a final cell density of 2×10^6 BM cells/well. T20 ng/mL of recombinant mouse GM-CSF (Granulocyte Macrophage—Colony Stimulating Factor Protein) was added followed by 50 ng/mL G-CSF or individual selected drug. […]

[3] = system: MDSC-related genes in bone marrow cells; test: Expression of MDSC-related genes in bone marrow cells treated with GCSF and compound; type: cell-based, mouse
Source text: FIG. 13A is a bar graph showing Ly6c+Ly6g+CD11b+gMDSCs differentiation in vitro in bone marrow cells treated with GCSF and the lead NCI compounds identified by computational screen against S100A8/A9 (calprotectin). FIGS. 13B-13K are representative flow cytometry plots showing the expression of CD11b and Ly6C in bone marrow cells treated with compounds 4, 10, 13, and 15. FIGS. 13L-13R are bar graphs showing the expression of MDSC-related genes (S100A8, FIG. 13L; S100A9, FIG. 13M; GCSF, FIG. 13N; IL1A, FIG. 13O; NOS2, FIG. 13P; CYB1, FIG. 13Q; and IL4R, FIG. 13R) in bone marrow cells treated with GCSF (black bars), GCSF+#4 (dark gray bars), GCSF+#10 (light gray bars), or untreated (white bars).
P values<0.05 were considered statistically significant.

4T1 tumor = test: Metastatic 4T1-injected mice treated with drug #10 (bioluminescence imaging, MDSC infiltration); type: in vivo, mouse
Source text: FIG. 14A-14D are bioluminescence images of metastatic 4T1-injected mice untreated or treated with drug #10. FIG. 14E-14H are bar graphs showing the extent of mMDSC infiltration in the primary tumor (FIG. 14H) and the BM (FIG. 14E), spleen (FIG. 14F), and lung (FIG. 14G) of metastatic 4T1-injected mice untreated (black bars) or treated with drug #10 (gray bars). FIG. 14I-14L are bar graphs showing the extent of gMDSC infiltration in the primary tumor (FIG. 14L) and the BM (FIG. 14I), spleen (FIG. 14J), and lung (FIG. 14K) of metastatic 4T1-injected mice untreated (black bars) or treated with drug #10 (gray bars).
Luciferase expressing 4T1 or EMT6 murine breast cancer cells (50,000 cells per mice) were orthotopically implanted into the fat pads of 5-week-old BALB/c mice. (AT-3 cells in C57BL/J6 mice) and these mice were imaged utilizing the Caliper IVIS imaging systems. To analyse MDSCs, tumor-bearing mice were sacrificed every week and single-cell suspensions were prepared from bone marrows, spleens, lungs and tumor tissues. Bone marrow cells were obtained by flushing bones with PBS using a 28G 1/2 syringe. […]
These cells were labeled with fluorescence-conjugated Ly6C (#128015-dilution 1/400), Ly6G (#127605-dilution 1/100) and CD11b (#101208-Dilution 1/200) antibodies (Biolegend) and analyzed on a FACS canto flow cytometer (BD Biosciences).

EMT6-Luc tumor = test: In vivo gMDSC induction: EMT6-Luc tumor model in BALB/c mice injected with recombinant protein; set-up: species or system mouse; details: for tumor cell killing activity of T cells from treated mice (annexin V+ cells): compared to control treated mice; for levels of caspase 3 mediated apoptosis: treated mice versus saline
Description: In vivo gMDSC induction: EMT6 tumor model was selected as platform to examine the role of the proteins in regulation gMDSCs and the resultant metastatic cascade. EMT6-Luc cells were implanted into the mammary fat pads of BALB/c mice (purchased from Charles Rivers at NCI). The mice were then injected (via tail vein) either with saline (control), recombinant S100A9 or Calprotectin (100 ng/mouse) every alternate day for three weeks.
EMT6 tumor model was selected as platform to examine the role of the proteins in regulation gMDSCs and the resultant metastatic cascade. EMT6-Luc cells were implanted into the mammary fat pads of BALB/c mice (purchased from Charles Rivers at NCI). The mice were then injected (via tail vein) either with saline (control), recombinant S100A9 or Calprotectin (100 ng/mouse) every alternate day for three weeks.

T cell proliferation = test: In vitro suppression: bone marrow cells treated with recombinant protein plus GM-CSF, then co-incubated with activated CFSE labeled T cells; type: cell-based, mouse; details: 7 days, then 3 days with activated CFSE labeled T cells
Description: In vitro suppression: Multigrams of recombinant Calprotectin, S100A8 and S100A9 proteins were isolated, purified and confirmed for their activity with commercially available proteins. Bone marrow cells were treated with recombinant S100A8 (A8), S100A(9) or Calprotectin (CALP) in presence of GM-CSF (Granulocyte Macrophage-Colony Stimulating Factor Protein) in vitro for 7 days for gMDSC differentiation. The cells were then co-mixed and incubated 3 more days with activated CFSE labeled T cells.
Multigrams of recombinant Calprotectin, S100A8 and S100A9 proteins were isolated, purified and confirmed for their activity with commercially available proteins. Bone marrow cells were treated with recombinant S10A8 (A8), S100A(9) or Calprotectin (CALP) in presence of GM-CSF (Granulocyte Macrophage—Colony Stimulating Factor Protein) in vitro for 7 days for gMDSC differentiation. The cells were then co-mixed and incubated 3 more days with activated CFSE labeled T cells.

[4] = 100 ng/mouse via tail vein every alternate day for three weeks

In the case of `CC(=N)NCc1cccc(CN)c1` [1400 W], the “activation of pStat1 and pStat3 pathways and EMT markers vimentin and twist (Western blot)” value [1] is reported as “suppressed the activation of the latter pathways and EMT markers” and the “mMDSC-induced transcription of IL1A, IL6, TGFB1 and VIM (qPCR)” value [1] is reported as “suppress the mMDSC-induced transcription of these genes”.

In the case of `NCCCN(CCCN)/[N+]([O-])=N/O` [DPTA], the “expression of IL1A, IL6, TGFB1 and VIM (qPCR)” value (EMT6 cells; 0.5 mM and 2.5 mM DPTA) is reported as “induced the expressions of indicated genes” and the “activation of pStat1 and pStat3 signaling pathways and protein levels of EMT markers vimentin and twist (Western blot)” value (EMT6 cells; 0.5 mM or 2.5 mM DPTA) is reported as “induced the activation of pStat1 and pStat3 signaling pathways and protein levels of EMT markers”.

`O=C1c2cccc(Oc3ccccc3)c2C(=O)c2cccc(Oc3ccccc3)c21` [compound 4, 1,5-diphenoxyanthracen-9-10-dione] was tested, and the “inhibition of gMDSC differentiation” value [2] was “significant inhibition of gMDSC differentiation” and the “expression of MDSC-related genes S100A8, S100S9, GCSF, IL1A, NOS2, CYBB1, and IL4R” value [3] was “reduced the expression”.

With `CC12CCC3C(CCC4Cc5[nH]c6ccccc6c5CC43C)C1CCC2O` (stereo not shown) [compound 10, 12a,14a-dimethyl-1,2,3,3a,3b,4,5,5a,6,7,12,12a,12b,13,14,14a-hexadecahydrocyclopenta[5,6]naphtho[2,1-b]carbazol-1-ol] the “tumor growth and metastasis” value (4T1 tumor; bioluminescence images) was “suppresses tumor growth and metastasis”, the “gMDSC infiltration into the tumor and distant organ sites” value (4T1 tumor; primary tumor, BM, spleen, lung) was “reduce gMDSC infiltration” and the “inhibition of gMDSC differentiation” value [2] was “significant inhibition of gMDSC differentiation”. For the same molecule, the “expression of MDSC-related genes S100A8, S100S9, GCSF, IL1A, NOS2, CYBB1, and IL4R” value [3] was “reduced the expression”.

`O=[N+]([O-])C1C(c2ccccc2)C12c1ccccc1-c1ccccc12` (stereo not shown) [compound 27] was tested, and the “inhibition of gMDSC differentiation” value [2] was “significant inhibition of gMDSC differentiation”.

For “Calprotectin: recombinant complex of the mammalian proteins S100A8 and S100A9”, the “CD8+ T cells” value (EMT6-Luc tumor; [4]) was “increase in CD8+ T cells”, the “primary tumor growth and spontaneous metastasis” value (EMT6-Luc tumor; [4]) was “enhanced primary tumor growth and spontaneous metastasis to the lungs and liver” and the “tumor cell killing activity of T cells from treated mice (annexin V+ cells)” value (EMT6-Luc tumor) was “significantly suppressed the tumor cell killing activity”. For the same molecule, the “levels of caspase 3 mediated apoptosis” value (EMT6-Luc tumor) was “reduced” and the “suppression of T cell proliferation by protein treated gMDSCs” value (T cell proliferation) was “suppressed T cell proliferation more efficiently compared to S100A9”.

With “S100A9: recombinant S100A9 protein, subunit of calprotectin” the “tumor cell killing activity of T cells from treated mice (annexin V+ cells)” value (EMT6-Luc tumor) was “moderate activity” and the “levels of caspase 3 mediated apoptosis” value (EMT6-Luc tumor) was “reduced”.

B1: S100A8: recombinant S100A8 protein, subunit of calprotectin (protein, UniProt P05109 1-93, looked up)
Protein S100-A8: MLTELEKALNSIIDVYHKYSLIKGNFHAVYRDDLKKLLETECPQYIRKKGADVWFKELDINTDGAVNFQEFLILVIKMGVAAHKKSHEESHKE
With B1 the “suppression of T cell proliferation by protein treated gMDSCs” value (T cell proliferation) was “no significant effect”.
